Structures can show the parent of a compound that is named as a salt. Where two headings read alike, the source gives them in different places.
What was measured:
SUDHL5 [1] = test: Induction of cytotoxicity in SUDHL5 cells, CellTiter-Glo (Assay 6); format: cell-based
Method in brief: (§1)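 Cells plated and held overnight at 37 °C, then compound-treated for 5 h at 37 °C. Viability measured by CellTiter-Glo luminescence after 15 min shaking at room temperature; cell-free medium as background control.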

SUDHL10 [2] = test: Induction of cytotoxicity in SUDHL10 cells, CellTiter-Glo (Assay 6); format: cell-based
Method in brief: as §1

SUDHL10 [3] = test: Induction of caspase-3/7 activity in SUDHL10 cells (Assay 4); format: cell-based; conditions: SUDHL10, 3 hours treatment, Caspase-Glo 3/7, median, read-out: Caspase SUDHL10 [M] (median)
Method in brief: (§2)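 DLBCL lines SUDHL5 and SUDHL10 were treated with compound for 3 h at 37 °C. Caspase-3/7 activity was then read by Caspase-Glo 3/7 luminescence after 1 h at 37 °C. Medium-only background was subtracted and values were normalized to the mean of DMSO-treated cells.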

SUDHL5 [4] = test: Induction of caspase-3/7 activity in SUDHL5 cells (Assay 4); format: cell-based; conditions: SUDHL5, 3 hours treatment, Caspase-Glo 3/7, median, read-out: Caspase SUDHL5 [M] (median)
Method in brief: as §2

SUDHL5 [5] = test: Anti-proliferative effect in SUDHL5 cells, CellTiter-Glo (Assay 7); format: cell-based; conditions: Homo sapiens, SU-DHL-5, 72 h, SUDHL5, 72 hours incubation, CellTiter-Glo; median; read-out: Antiproli SUDHL5 [M] (median)
Method in brief: (§3)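 Proliferation is measured as luminescence from CellTiter-Glo after cells grow with compound for 72 h in a humidified 37 °C incubator. A reference plate read at time zero supplies the day 0 baseline, and DMSO wells serve as control for IC50 calculation.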

A2780 = test: Anti-proliferative effect in A2780 cells, CellTiter-Glo (Assay 7); format: cell-based; conditions: A2780, 72 hours incubation, CellTiter-Glo, several values per example, read-out: Antiproli A2780
Method in brief: as §3

BCL-XL = BCL-XL (Homo sapiens, UniProt Q07817); test: Protein-protein interaction assay BCL-XL/Bad BH3 peptide, TR-FRET (BCL-XL assay, Assay 2); format: binding; conditions: His-BCL-XL / Bad BH3 peptide, median
Chain of BCL-XL (Q07817 1-212): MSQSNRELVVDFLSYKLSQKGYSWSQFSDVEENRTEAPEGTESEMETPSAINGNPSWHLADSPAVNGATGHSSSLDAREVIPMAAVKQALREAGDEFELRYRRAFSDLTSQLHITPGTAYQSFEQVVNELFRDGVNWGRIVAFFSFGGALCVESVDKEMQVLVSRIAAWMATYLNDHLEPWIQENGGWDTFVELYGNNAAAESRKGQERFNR

BCL-2 = BCL-2 (Homo sapiens, UniProt P10415); test: Protein-protein interaction assay BCL-2/Bad BH3 peptide, TR-FRET (BCL-2 assay, Assay 3); format: binding; conditions: His-BCL-2 / Bad BH3 peptide, median
Chain of BCL-2 (P10415 1-211): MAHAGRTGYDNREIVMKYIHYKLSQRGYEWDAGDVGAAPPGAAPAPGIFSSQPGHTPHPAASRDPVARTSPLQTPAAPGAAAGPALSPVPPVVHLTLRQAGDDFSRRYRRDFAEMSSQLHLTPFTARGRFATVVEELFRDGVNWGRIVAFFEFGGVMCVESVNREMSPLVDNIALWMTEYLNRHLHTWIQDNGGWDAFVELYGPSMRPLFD
Procedure: The dose-dependent inhibition by the compounds described in this invention of the interaction between BCL-2 and the BH3 domain of Bad (both human) was determined using a steady state binding competition assay with time-resolved fluorescence energy transfer (TR-FRET) readout. For that purpose BCL-2 (amino acids 1-211, C-terminal fused to a hexahistidine (6×His) tag (SEQ ID 5) and a synthetic Bad BH3-derived peptide of sequence Biotin-PEG2-PEG2-[sequence]-Nle-[sequence]-amide (SEQ ID 4) served as protein receptor and tracer ligand respectively. The recombinant BCL-2 protein (expressed in E. coli) was purchased from BPS Bioscience (San Diego, Calif., USA). The Bad BH3-derived peptide can be obtained from e.g. Biosyntan (Berlin, Germany).
For that, 100-fold concentrated DMSO solutions were prepared by serial dilutions (1:3.4) of a 2 mM stock solution in a clear, 384-well microtiter plate (Greiner Bio-One, Frickenhausen, Germany). From there, 50 nl were transferred in a dark test plate (Greiner Bio-One, Frickenhausen, Germany). The assay was initiated by addition of 2 μl of a 2,5-fold concentrated His-BCL-2 solution (usually for a 1 nM end concentration in 5 μl reaction volume) in aqueous assay buffer [50 mM Tris/HCl pH 7, 100 mM sodium chloride (NaCl), 50 mM potassium fluoride (KF), 0.005% Tween-20, 2 mM DTT, 0.1% bovine gamma globulin (BGG)] to the compounds in the assay plate. This was followed by a 10-minute incubation step at 22° C. for pre-equilibration of the putative complex between His-BCL-2 and the compounds.
The mixture was incubated in the dark for one hour at 22° C. and then overnight at 4° C. The formation of BCL-2/Bad complexes was determined by measuring the resonance energy transfer of the anti-His-Eu-cryptate antibody to the streptavidin-XL665 present in the reaction. For that purpose, the fluorescence emission at 620 nm and 665 nm after excitation at 330-350 nm was measured in a TR-FRET measuring instrument, for instance a Rubystar or a Pherastar (both from BMG Lab Technologies, Offenburg, Germany) or a Viewlux (Perkin-Elmer). The ratio of the emission at 665 nm and at 622 nm was used as indicator of the amount of BCL-2/Bad complexes present.
The resulting data (ratio) were normalized, taking 0% inhibition as the mean value of control measurements (usually 32 data points) where all reagents were included. In this case 50 nl DMSO were used instead of compounds. […] IC50 values were determined by regression analysis based on a 4 parameter equation (minimum, maximum, IC50, Hill; Y=Max+(Min−Max)/(1+(X/IC50)^Hill) using the Screener Software (Genedata).

MCL-1 = MCL-1 (Homo sapiens, UniProt Q07820, K194A/K197A/R201A); test: Protein-protein interaction assay MCL-1/Noxa BH3 peptide, TR-FRET (MCL-1 assay, Assay 1); format: binding; conditions: MCL-1 Assay [M] (median), MBP-MCL-1 / Noxa BH3 peptide
Chain of MCL-1 (Q07820 173-321 K194A/K197A/R201A, looked up): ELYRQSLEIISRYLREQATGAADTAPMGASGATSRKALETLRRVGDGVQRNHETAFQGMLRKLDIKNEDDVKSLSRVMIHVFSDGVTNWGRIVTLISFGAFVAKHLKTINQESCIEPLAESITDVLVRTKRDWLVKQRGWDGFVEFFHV
Method in brief: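 Human MBP-fused MCL-1 (aa 173-321; 1 nM final) was pre-incubated 10 min at 22 °C with compound in pH 7 Tris buffer containing NaCl, KF, Tween-20, DTT and BGG. Displacement of biotinylated Noxa BH3 peptide was read by TR-FRET (anti-MBP-Eu cryptate/streptavidin-XL665) after 1 h at 22 °C plus overnight at 4 °C. IC50 came from four-parameter fits against DMSO controls.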

MV-4-11 = test: Anti-proliferative effect in MV-4-11 cells, CellTiter-Glo (Assay 7); format: cell-based; conditions: MV-4-11, 72 hours incubation, CellTiter-Glo, several values per example, read-out: Antiproli MV-4-11
Method in brief: as §3

[6] = Homo sapiens, SU-DHL-5, 5 h, SUDHL5, 5 hours incubation, median, read-out: Cytotox SUDHL5 [M] (median)
[7] = Homo sapiens, SU-DHL10, 5 h, SUDHL10, 5 hours incubation, median, read-out: Cytotox SUDHL10 [M] (median)

SMILES | IC50 (SUDHL5 [1]; [6]) [M] | IC50 (SUDHL10 [2]; [7]) [M] | EC50 (SUDHL10 [3]; Homo sapiens, SU-DHL10, 3 h) [M] | EC50 (SUDHL5 [4]; Homo sapiens, SU-DHL-5, 3 h) [M] | IC50 (SUDHL5 [5]) [M] | IC50 (A2780) [µM] | IC50 (A2780; Homo sapiens, A2780, 72 h) [µM] | IC50 (BCL-XL) [µM] | IC50 (BCL-2) [µM] | IC50 (MCL-1) [M] | IC50 (MV-4-11; Homo sapiens, MV4-11, 72 h) [µM] | IC50 (MV-4-11) [µM] | IC50 (SUDHL5 [1]; read-out: Cytotox SUDHL5 [M] (median), SUDHL5, 5 hours incubation) | IC50 (SUDHL10 [2]; read-out: Cytotox SUDHL10 [M] (median), SUDHL10, 5 hours incubation) | EC50 (SUDHL10 [3]) [M] | EC50 (SUDHL5 [4]) [M]
Cc1c2c(nn1C)COCc1nc3ccccc3nc1Cn1c(C(=O)O)c(CCCOc3cccc4ccccc34)c3cccc-2c31 (racemic) [Example 10, (rac)-4,5-Dimethyl-19-[3-(naphthalen-1-yloxy)propyl]-5,7,9,16-tetrahydroindolo[1′,7′:6,7,8]-pyrazolo[4′,3′:9,10][1,6]oxazacycloundecino[3,4-b]quinoxaline-18-carboxylic Acid] | 5.6e-06 | 1.4e-05 | 1.8e-05 | 4.3e-06 | 5.1e-06 | 20.6 | > 33 | > 20 | > 20 |  |  |  |  |  |  | 
Cc1c2c(nn1C)COCc1ccccc1Cn1c(C(=O)O)c(CCCOc3cccc4c3CCC4)c3ccc(F)c-2c31 (racemic) [Example 61, (rac)-1-(3-((2,3-Dihydro-1H-inden-4-yl)oxy)propyl)-15-fluoro-13,14-dimethyl-4,9,11,13-tetrahydrobenzo[3,4]pyrazolo[4′,3′:9,10][1,6]oxaazacycloundecino[8,7,6-hi]indole-2-carboxylic Acid] | 2.3e-06 | 5e-06 | 5.8e-06 | 2.5e-06 | 2.1e-06 |  | 22.8 | > 20 | > 20 | 2.1e-09 | 3.57 |  |  |  |  | 
Cc1c2c(nn1C)COCc1ccccc1Cn1c(C(=O)O)c(CCCOc3cccc4c3CCCC4)c3ccc(F)c-2c31 (racemic) [Example 62, (rac)-15-Fluoro-13,14-dimethyl-1-(3-((5,6,7,8-tetrahydronaphthalen-1-yl)oxy)propyl)-4,9,11,13-tetrahydrobenzo[3,4]pyrazolo[4′,3′:9,10][1,6]oxaazacycloundecino[8,7,6-hi]indole-2-carboxylic Acid] | 2.9e-06 | 5.2e-06 | 1e-05 | 3.2e-06 | 3.1e-06 |  | 13.9 | > 20 | > 20 | 2.6e-09 | 6.36 |  |  |  |  | 
Cc1c2c(nn1C)COCc1ccccc1Cn1c(C(=O)O)c(CCCOc3ccc(F)c4ccccc34)c3ccc(F)c-2c31 (racemic) [Example 63, (rac)-15-Fluoro-1-(3-((4-fluoronaphthalen-1-yl)oxy)propyl)-13,14-dim4,9,11,13-tetrahydrobenzo[3,4]pyrazolo[4′,3′:9,10][1,6]oxaazacycloundecino[8,7,6-hi]indole-2-carboxylic Acid] | 8.3e-06 | 1.5e-05 | 2.3e-05 | 9.3e-06 | 6.2e-06 |  | 19.7 | > 20 | 18.1 | 4.5e-09 | > 33 |  |  |  |  | 
CCc1c2c(nn1C)COCc1ccccc1Cn1c(C(=O)O)c(CCCOc3ccc(F)c4ccccc34)c3ccc(F)c-2c31 (racemic) [Example 76, (rac)-14-Ethyl-15-fluoro-1-(3-((4-fluoronaphthalen-1-yl)oxy)propyl)-13-methyl-4,9,11,13-tetrahydrobenzo[3,4]pyrazolo[4′,3′:9,10][1]oxa[6]azacycloundecino[8,7,6-hi]indole-2-carboxylic Acid] | 3.4e-06 | 9.4e-06 | 1.3e-05 | 3.3e-06 | 3.7e-06 | 25 | 16.6 | > 20 | 15.8 | 3.1e-09 | 9.05 | 10.1 |  |  |  | 
CCc1c2c(nn1C)COCc1ccccc1Cn1c(C(=O)O)c(CCCOc3cc(C)c(Cl)c(C)c3)c3ccc(F)c-2c31 (racemic) [Example 79, (rac)-1-(3-(4-Chloro-3,5-dimethylphenoxy)propyl)-14-15-fluoro-13-methyl-4,9,11,13-tetrahydrobenzo[3,4]pyrazolo[4′,3′:9,10][1]oxa[6]azacycloundecino[8,7,6-hi]indole-2-carboxylic Acid] | 2.1e-06 | 1e-05 | 1.3e-05 | 2.9e-06 | 9.2e-06 |  | 17 | 19.6 | 15.6 | 2.6e-09 | 2.33 |  |  |  |  | 
Cc1nn(C)c2c1-c1c(F)ccc3c(CCCOc4cccc5c4CCC5)c(C(=O)O)n(c13)Cc1ccccc1COC2 (racemic) [Example 84, (rac)-1-(3-((2,3-Dihydro-1H-inden-4-yl)oxy)propyl)-15-fluoro-12,14-dimethyl-4,9,11,12-tetrahydrobenzo[3,4]pyrazolo[4′,3′:9,10][1]oxa[6]azacycloundecino[8,7,6-hi]indole-2-carboxylic Acid] | 1.1e-05 | 2.2e-05 | 2.7e-05 | 9.8e-06 | 7.7e-06 |  | 31 | > 20 | > 20 | 6.2e-09 | 12.5 |  |  |  |  | 
CCc1nn(C)c2c1-c1c(F)ccc3c(CCCOc4cccc5c4CCCC5)c(C(=O)O)n(c13)Cc1ccccc1COC2 (racemic) [Example 88, (rac)-14-Ethyl-15-fluoro-12-methyl-1-(3-((5,6,7,8-tetrahydronaphthalen-1-yl)oxy)propyl)-4,9,11,12-tetrahydrobenzo[3,4]pyrazolo[4′,3′:9,10][1,6]oxaazacycloundecino[8,7,6-hi]indole-2-carboxylic Acid] | 7.4e-06 | 1.5e-05 | 1.7e-05 | 6.2e-06 | 6e-06 |  | 15.1 | > 20 | 13.7 | 7.4e-09 | 9.93 |  |  |  |  | 
Cc1c2c(nn1C)CNCc1ccccc1Cn1c(C(=O)O)c(CCCOc3cccc4ccccc34)c3cccc-2c31 (single isomer, unassigned; enantiomer 1) [Example 12, 4,5-Dimethyl-17-[3-(naphthalen-1-yloxy)propyl]-7,8,9,14-tetrahydro-5H-indolo[1,7-bc]pyrazolo-[4,3-e][2,8]benzodiazacycloundecine-16-carboxylic acid-Trifluoroacetic Acid Salt (Enantiomer 1)] |  |  |  |  |  |  |  | > 20 | > 20 | 2.9e-09 |  |  | 1.9e-06 | 5e-06 | 4.9e-06 | 2.4e-06
Cc1cc(OCCCc2c(C(=O)O)n3c4c(c(F)ccc24)-c2c(nn(C)c2C)COCc2ccccc2C3)cc(C)c1Cl [Example 60, (rac)-1-(3-(4-Chloro-3,5-dimethylphenoxy)propyl)-15-fluoro-13,14-dimethyl-4,9,11,13-tetrahydrobenzo[3,4]pyrazolo[4′,3′:9,10][1,6]oxaazacycloundecino[8,7,6-hi]indole-2-carboxylic Acid] | 3.7e-06 | 7.6e-06 | 1.2e-05 | 3e-06 | 5.1e-06 |  | 23 | > 20 | 19.8 | 2.9e-09 | 5.75 |  |  |  |  | 

Reference: patent US20210253598A1, “ARYL ANNULATED MACROCYCLIC INDOLE DERIVATIVES” (priority 2017, published 2021)
